Results reported in patent US20250127813A1, “COMBINATION DRUG” (OTSUKA PHARMACEUTICAL CO., LTD., priority 2021, published 2025).
“Also recorded” adds a separate entry of the source. Read-outs that look alike come from different tables or passages of the source.

Tests used:
NALM6-luc2 [1] = assay: Combination of tolinapant and CD19 CAR-T against a low volume of tumor (NALM6-luc2, NOG mice); format: in vivo, mouse
Excerpt: For the measurement, IVIS (trademark) Lumina X5 was used.

CD19-negative NALM6 = assay: Cell death induction by tolinapant in presence of cytokine produced from CAR-T; format: cell-based; settings: cytokine produced from CAR-T present with tolinapant; antigen-negative as well as antigen-expressing tumor cells
Excerpt: It has also been confirmed that when CAR-T used in this Example was reacted with a target CAR antigen-expressing tumor cell (e.g., CD19-positive NALM6) in vitro, cytokine (e.g., TNF-α) was produced. […] This non-contact apoptosis induction to tumor cells is expected to exert an antitumor effect on tumor cells in which antigen escape has occurred or tumor cells metastasized to a site to which modified immune cells cannot make access.

MDA-MB-231 = settings: 16 mg/kg, daily oral administration; References 1 and 2; cited from earlier work
A375 = assay: Combination of tolinapant and NY-ESO-1 TCR-T in A375 subcutaneous tumor-bearing NOG mice; format: in vivo, mouse
Method: Each mouse was identified with a number attached to the tail of the mouse.
The evaluation period was set to 2 weeks, and grouping and pharmacological evaluation were performed based on the results of tumor diameter measurement using a caliper. The tumor diameter and body weight were measured twice a week.
Using trypsin-EDTA-PBS(−), the cultured cells were detached and collected and then centrifuged (4° C., 1200 rpm, 5 min). After removing the supernatant, D-PBS (−) was added and the cells were resuspended and washed by centrifugation in the same manner as above. This washing operation was further repeated twice. After a portion of the cell suspension was taken and the number of viable cells was counted using AOPI Staining Solution, a cell suspension at 1×10^7 cells/mL was prepared using D-PBS(−), After the preparation, the cell suspension was stored in ice until transplantation. […]
On the eighth day after the transplantation, the long diameter and the short diameter were measured and the tumor volume was calculated. […]
The tumor diameter was determined by measuring the short diameter and the long diameter using an electronic caliper (produced by Mitutoyo Corporation). After tumor cell transplantation, the tumor diameter was measured twice a week.
Based on the measurement results of the tumor diameter, the tumor volume (TV: tumor volume) was calculated using the following formula: […]

NALM6-luc2 [2] = tested on: NALM6-luc2
Method: 6-week-old NOG mice produced by In-Vivo Science Co., Ltd., were obtained, and tumor cells were intravenously transplanted into the mice at 7 weeks of age to prepare tumor-bearing mice. The day before the transplantation, busulfex (BSF) was intraperitoneally administered at 20 mg/kg. During the breeding period, the mice were housed with 5 mice per group and bred in a P2A breeding room set to a temperature of 24° C. (actual measurement: 19.7 to 25.0° C.), humidity of 50% (actual measurement: 38.6 to 58.5%), and illumination of 12 hours/day (8:00 a.m. to 8:00 p.m.). During the breeding period, the mice were allowed free access to radiation-sterilized solid feed for mice (CL-2, produced by Clea Japan, Inc.) and autoclave-sterilized tap water placed in a water bottle.
CD19 CAR-T cells were intravenously administered once according to the group constitution on the same day as grouping. The IAP antagonist also started to be administered on the same day as grouping and was orally or intravenously administered according to the group constitution table.
The evaluation period was set to 3 to 4 weeks. Grouping and pharmacological evaluation were performed based on tumor luminescence values as determined by IVIS (trademark). Luminescence value measurement by IVIS (trademark) and body weight measurement were performed twice a week.
For NALM6-luc2, after resuspension, a portion of the cell suspension was taken, dead cells were stained with AOPI Staining Solution, and the number of viable cells was counted with a blood cell measuring device. A cell suspension was prepared by diluting the cells with RPMI 1640 to 1×10^7 cells/mL, based on the measurement results of viable cell count of the cells. Similarly, in a low tumor volume system, a cell suspension was prepared by diluting the cells with serum-free RPMI 1640 to achieve a concentration of 1×10^6 cells/mL.
After the mice were retained using a retainer, a cell suspension was transplanted at 1×10^6 cells/0.1 mL/body using a 27G Myjector (1 mL, produced by Terumo Corporation) to the tail vein of each mouse with no anesthesia. In the low tumor volume system, a cell suspension at 1×10^5 cells/0.1 mL/body was transplanted.
In accordance with the dosing regimen shown in FIG. 6, NALM6-luc2 was transplanted the day after treating the […] with busulfex. On the third day after the transplantation, luminescence values were measured using the IVIS (trademark) Lumina X5 In-Vivo imaging system (produced by PerkinElmer, Co., Ltd.). Using the luminous values as an indicator and using SAS software R9.4 (produced by SAS Institute Japan), the mice were divided into groups of 5 mice each by the stratified random sampling method.
1) A suspension of CD19 CAR-T cells was administered to the tail vein at the time of grouping. For the dosage, the number of viable CD19 CAR-T cells was counted and a cell suspension prepared according to the group constitution table was administered once at 0.1 mL/body. For the administration, a Myjector syringe with a 27G needle was used.
5) Birinapant was intraperitoneally administered at a dose of 10 mL/kg according to the group composition table. Tolinapant, LCL161, and AT406 were orally administered at a dose of 10 mL/kg according to the group composition table using a sonde in the same manner. For intraperitoneal administration, an insulin syringe with a 26G needle was used in place of the sonde. For oral administration, a needle was used in place of the sonde to administer each drug.
VivoGlo™-luciferin (produced by Promega) was dissolved in D-PBS(−) to achieve a concentration of 30 mg/mL and then cryopreserved at −20° C. under light-shielded conditions. On the day of measurement, dissolved VivoGlo™-luciferin was diluted with an equivalent amount of D-PBS(−) and stored at room temperature under light-shielded conditions until use for testing. Based on the body weight measured in advance, VivoGlo™-luciferin was intraperitoneally administered in a volume of 10 mL/kg.

[3] = tolinapant 16 mg/kg qd po + CD19 CAR-T 1×10^5 cells/body iv
[4] = combined use with CD19 CAR-T, AUC up to day 14
[5] = combined use with CD19 CAR-T, AUC up to day 17
[6] = combined use with CD19 CAR-T, maximum tumor volume (luminescence value)

With `C[C@@H]1CN(CC(=O)N2CC(C)(C)c3nc(CO)c(Cc4ccc(F)cc4)cc32)[C@@H](CN2CCOC[C@H]2C)CN1` [Tolinapant, 1-[6-[(4-fluorophenyl)methyl]-5-(hydroxymethyl)-3,3-dimethyl-2H-pyrrolo[3,2-b]pyridin-1-yl]-2-[(2R,5R)-5-methyl-2-[[(3R)-3-methylmorpholin-4-yl]methyl]piperazin-1-yl]ethanone] the “reduction in the number of CAR-T cells achieved by the combination” value (NALM6-luc2 [1]; 2×10^4 cells + tolinapant versus 1×10^6 cells alone, suggested possibility) was “at least 50 fold”, the “combination effect of tolinapant and CD19 CAR-T on a low volume of tumor” value (NALM6-luc2 [1]; tolinapant 16 mg/kg qd po + CD19 CAR-T) was “a strong combination effect was observed” and the “effect of tolinapant + 1×10^5 cells CD19 CAR-T compared with 1×10^6 cells CD19 CAR-T alone” value (NALM6-luc2 [1]; [3]) was “an effect equivalent to the effect achieved by using 1×10^6 cells of CD19 CAR-T alone was observed on day 17”. For the same molecule, the “effect of tolinapant + 2×10^4 cells CD19 CAR-T compared with 1×10^6 cells CD19 CAR-T alone” value (NALM6-luc2 [1]; tolinapant 16 mg/kg qd po + CD19 CAR-T 2×10^4 cells/body iv) was “an effect equivalent to the effect achieved by using 1×10^6 cells of CD19 CAR-T alone was observed on day 21”, the “induction of cell death (e.g., apoptosis)” value (CD19-negative NALM6) was “cell death (e.g., apoptosis) is induced to antigen-negative tumor cells (e.g., CD19-negative NALM6) as well as antigen-expressing cells” and the “efficacy of tolinapant in MDA-MB-231 xenograft mice” value (MDA-MB-231) was “exhibited efficacy”. For the same molecule, the “tumor volume on day 15, combination versus either agent alone” value (A375; tolinapant 16 mg/kg po + NY-ESO-1 TCR-T 3×10^6 cells/body iv, day 15) was “a significant difference was observed”, the “tumor regression with NY-ESO-1 TCR-T and tolinapant both administered” value (A375; tolinapant 16 mg/kg po + NY-ESO-1 TCR-T iv, compared with NY-ESO-1 TCR-T alone) was “a higher degree of tumor regression was confirmed; also recorded: synergistic effects based on the combined use were shown; also recorded: significant, highly reproducible results” and the “maximum effect / drug efficacy-enhancement effect of combination with tolinapant compared with other IAP antagonists” value (NALM6-luc2 [2]; combination with CD19 CAR-T, versus AT406, LCL161, birinapant) was “the combination with tolinapant was superior; also recorded: a higher drug efficacy-enhancement effect than combinations with any other IAP antagonist”. The “t-Test using AUC as an indicator (day 14), Tolinapant versus AT406” value (NALM6-luc2 [2]; [4]) was less than 0.05, the “t-Test using AUC as an indicator (day 14), Tolinapant versus Birinapant” value (NALM6-luc2 [2]; [4]) was less than 0.05 and the “t-Test using AUC as an indicator (day 14), Tolinapant versus LCL161” value (NALM6-luc2 [2]; [4]) was less than 0.05. The “t-Test using AUC as an indicator (day 17), Tolinapant versus AT406” value (NALM6-luc2 [2]; [5]) was less than 0.05, the “t-Test using AUC as an indicator (day 17), Tolinapant versus Birinapant” value (NALM6-luc2 [2]; [5]) was less than 0.05 and the “t-Test using AUC as an indicator (day 17), Tolinapant versus LCL161” value (NALM6-luc2 [2]; [5]) was less than 0.05. For the same molecule, the “t-Test using AUC as an indicator (day 17), Tolinapant versus AT406” value (NALM6-luc2 [2]; combined use with CD19 CAR-T, AUC up to day 17, listed as tolinapant) was “a significance due to combined use of tolinapant could be observed”, the “t-Test using the maximum tumor volume as an indicator, Tolinapant versus AT406” value (NALM6-luc2 [2]; [6]) was less than 0.05 and the “t-Test using the maximum tumor volume as an indicator, Tolinapant versus Birinapant” value (NALM6-luc2 [2]; [6]) was less than 0.05. The “t-Test using the maximum tumor volume as an indicator, Tolinapant versus LCL161” value (NALM6-luc2 [2]; [6]) was less than 0.05, the “t-Test using the maximum tumor volume as an indicator, Tolinapant versus AT406” value (NALM6-luc2 [2]; combined use with CD19 CAR-T, maximum tumor volume (luminescence value), listed as tolinapant) was “a significant difference” and the “effect of tolinapant + 1×10^5 cells CD19 CAR-T compared with 1×10^6 cells CD19 CAR-T alone” value (NALM6-luc2 [2]; [3]) was “an effect equivalent to the effect achieved by using 1×10^6 cells of CD19 CAR-T alone was observed on day 14; also recorded: better tumor regression was observed on day 14 and thereafter”. The “combination effect of tolinapant and CD19 CAR-T (tumor luminescence value)” value (NALM6-luc2 [2]; tolinapant 16 mg/kg qd po + CD19 CAR-T 1×10^5 cells/body iv, versus tolinapant only or CD19 CAR-T only) was “significantly improved effect (p<0.05); also recorded: a significant combination effect was observed on day 7 and thereafter; also recorded: significant, highly reproducible results” and the “efficacy of tolinapant administered alone” value (NALM6-luc2 [2]; tolinapant alone, 16 mg/kg, daily oral administration) was “showed no efficacy; also recorded: no effect”.
